Assay results from patent publication US20050048113A1, “Composition and method for treatment or prevention of oral cavity disorders” (priority 2003, published 2005).

Tests used:
[1] = famotidine 40 mg per day, sublingual vs p.o. vs no treatment, 3 weeks each; pH 1, 2, 3 hours after a meal and at wakeup; preliminary results
Experimental: An ongoing study is now being carried out on healthy young (25-40 years old) volunteers. The oral cavity pH is measured 1, 2, and 3 hours after a meal and at wakeup in the morning. These measurements are done daily for each participant, 3 weeks without treatment, 3 weeks under sublingual famotidine (40 mg per day), and 3 weeks under p.o. famotidine (40 mg per day).

[2] = system: male participants suffering from gingivitis; assay: Loe Silness gingival index (GI) in participants suffering from gingivitis; format: in vivo, human
Experimental: Twelve male participants (24-42 years old) suffering from gingivitis were divided into 4 groups. Participants of the first group (No.=3) were treated by conventional oral hygiene procedures, including mechanical procedures and usage of mouthwash preparations for 3 months. Participants of the second group (No. =3) were treated by swallowing tablet of Famotidine 40 mg, once daily at bed time, for 3 months. Participants of the third group (No.=3) were treated by sublingual tablet of Famotidine 40 mg, once daily at bed time, for 3 months. Participants of the fourth group (No.=3) were treated by sublingual tablet of Omeprazole 20 mg, once daily at bed time, for 3 months. All participants were screened for dental caries and treated accordingly.
Each participant was examined at recruitment and after then bi-weekly up to 3 months from recruitment (7 examinations for each participant). At each visit gingival index was determined using a standard Loe Silness gingival index (GI) chart, which is accessible at the following website: http://www.medal.org/sheets/ch9/gingival %20index %20Loe %20Silness.xls.
The GI scores of examination No.7 (at 3 months from recruitment) compared to GI scores at examination No.1 (at recruitment), were calculated as mean GI reduction for each group.

[3] = system: -person suffering from accelerated cariogenicity and progressive gingivitis
[4] = system: proton-translocating membrane ATPases of oral streptococci; settings: cited from earlier work
[5] = Famotidine 40 mg per day, tablets swallowed, half year later

NC(N)=Nc1nc(CSCCC(N)=NS(N)(=O)=O)cs1 [Famotidine]
rank order of the highest oral cavity pH [1]: Sublingual Famotidine treatment>p.o. Famotidine treatment>no treatment
mean GI reduction ([2]; sublingual tablet 40 mg once daily at bed time, 3 months vs recruitment (third group)): 31%
mean GI reduction ([2]; swallowed tablet 40 mg once daily at bed time, 3 months vs recruitment (second group)): 17.1%
epigastric symptoms [3, 5]: relieved
symptoms of reflux [3, 5]: persisted
reflux symptoms ([3]; famotidine tablets taken sublingually instead of swallowed): relieved
new caries at twice a year dental follow-ups ([3]; next 5 years under sublingual famotidine treatment): new caries were not detected
gingivitis ([3]; sublingual famotidine, in the following months): improved dramatically

COc1ccc2[nH]c([S+]([O-])Cc3ncc(C)c(OC)c3C)nc2c1 (stereo not shown) [Omeprazole]
mean GI reduction ([2]; sublingual tablet 20 mg once daily at bed time, 3 months vs recruitment (fourth group)): 27.5%

[N-]=[N+]=[N-] [azide]
sensitivity of proton-translocating membrane ATPases to the inhibitor [4]: sensitive

C(=NC1CCCCC1)=NC1CCCCC1 [dicyclohexylcarbodiimide]
sensitivity of proton-translocating membrane ATPases to the inhibitor [4]: sensitive

C[C@@H]1O[C@@H](O[C@H]2C[C@@H](O)[C@]3(CO)[C@H]4[C@H](O)C[C@]5(C)[C@@H](C6=CC(=O)OC6)CC[C@]5(O)[C@@H]4CC[C@]3(O)C2)[C@H](O)[C@H](O)[C@H]1O [ouabain]
sensitivity of proton-translocating membrane ATPases to the inhibitor [4]: insensitive

[O]=[V]([O-])([O-])[O-] [vanadate]
sensitivity of proton-translocating membrane ATPases to the inhibitor [4]: insensitive
